This is an account of results in patent publication US7196112B2, “Cell adhesion inhibitors” (Biogen Idec MA Inc., priority 2004, dated 2007).

Assay [1] addresses T1, α4β1 (Homo sapiens, UniProt P05556+P13612). Briefly: Equilibrium binding on Jurkat cells, competition with 35S-B as reporter.
Method: The α4β1-expressing Jurkat human T-cell line (a gift from S. Burakoff, Dana Farber Cancer Institute, Boston, Mass.), and the α4β7-expressing human B-cell line, JY (American Type Tissue Collection, Rockville, Md.) were maintained in culture at 37° C. in RPMI-1640 medium supplemented with 10% fetal bovine serum (FBS). K562 cell lines transfected with either the human α1-integrin chain (Phil Gotwells, Biogen, Inc) or with the human α2 integrin chain (a gift from M. Hemler, Dana Farber Cancer Institute, Boston, Mass.) were maintained in RPMI-1640 medium supplemented with 10% FBS and 1 mg/mL G418. All cells were periodically monitored for high integrin surface expression by FACS analysis. The binding of the various inhibitors to α4β1 were assessed on Jurkat cells by competition using radioactive ^35S-B as a reporter for a 1 occupancy. Jurkat cells were pelleted by centrifugation, washed two times with TBS (50 mM Tris HCl, 150 mM NaCl, 0.1% bovine serum albumin, 2 mM glucose, 10 mM HEPES pH 7.4), suspended at approximately 2×10^6 cells/mL in TBS, and counted using a Neubauer hemocytometer. The cells were further diluted 2×10^6 cells/mL with TBS containing 1 mM CaCl2 and 1 mM MgCl2 and treated with serial dilutions of test compound for 1 hour, and then 5 nM ^35S-B, an amount sufficient to bind all unoccupied receptors, was added for 10 minutes before measuring the bound counts. The cells were then pelleted by centrifugation, resuspended in 100 μL of TBS plus Mn^2+, and transferred to a scintillation vial containing 2.9 mL of ScintiVerse II (Fisher Scientific). Cell-associated radioactivity was quantified by scintillation counting. All studies were performed in siliconized 1.5 mL eppendorf tubes with a standard 1 mL sample volume. Each condition was tested in at least two independent studies. Non-specific binding of ^35S-B to cells was assessed at each cell density and ^35S-B concentration in TBS but in the absence of added metal ion. Specific counts bound were calculated by subtracting non specific counts from total counts bound. Counts bound under these conditions measures integrin that is not occupied by the test compound and is therefore free to bind the ^35S-B. The competition format was also used for kinetic binding studies. Binding and dissociation constants were calculated from α4β1 that remained free to bind the ^35S-B after treatment with test compound.
The affinities of the PEGylated inhibitors for α4β1 were calculated from association and disassociation rate constants using a kinetic analysis. For these studies, Jurkat cells expressing α4β1 (75,000 copies/cell) were treated with the inhibitors and then ^35S-B was added as a probe to detect free α4β1. The levels of bound inhibitor were calculated from a measure of total ^35S-B bound in the absence of added inhibitor and counts bound following inhibitor treatment. […] IC50 values were calculated from equilibrium binding studies on Jurkat cells through competition using ^35S-B as a reporter in buffer containing 1 mM Ca^2+ and 1 mM Mg^2+.
Second, the effect of protein binding on the affinity of the PEGylated inhibitors for α4β1 on Jurkat cells was evaluated from equilibrium binding measurements.
The target in assay [2] is T1, α4β1. Description: Kinetic binding to α4β1 on Jurkat cells, competition with 35S-B as probe for free α4β1. The note with it: for Kd: calculated from on- and off-rate constants; for koff: read-out: koff/10^−4; for kon: read-out: kon/10^6. The arrangement: endogenous in cells; host or cells: Jurkat human T-cell line.
Method: All cells were periodically monitored for high integrin surface expression by FACS analysis. The binding of the various inhibitors to α4β1 were assessed on Jurkat cells by competition using radioactive ^35S-B as a reporter for a 1 occupancy. Jurkat cells were pelleted by centrifugation, washed two times with TBS (50 mM Tris HCl, 150 mM NaCl, 0.1% bovine serum albumin, 2 mM glucose, 10 mM HEPES pH 7.4), suspended at approximately 2×10^6 cells/mL in TBS, and counted using a Neubauer hemocytometer. The cells were further diluted 2×10^6 cells/mL with TBS containing 1 mM CaCl2 and 1 mM MgCl2 and treated with serial dilutions of test compound for 1 hour, and then 5 nM ^35S-B, an amount sufficient to bind all unoccupied receptors, was added for 10 minutes before measuring the bound counts. The cells were then pelleted by centrifugation, resuspended in 100 μL of TBS plus Mn^2+, and transferred to a scintillation vial containing 2.9 mL of ScintiVerse II (Fisher Scientific). Cell-associated radioactivity was quantified by scintillation counting. All studies were performed in siliconized 1.5 mL eppendorf tubes with a standard 1 mL sample volume. Each condition was tested in at least two independent studies. Non-specific binding of ^35S-B to cells was assessed at each cell density and ^35S-B concentration in TBS but in the absence of added metal ion. Specific counts bound were calculated by subtracting non specific counts from total counts bound. Counts bound under these conditions measures integrin that is not occupied by the test compound and is therefore free to bind the ^35S-B. The competition format was also used for kinetic binding studies. Binding and dissociation constants were calculated from α4β1 that remained free to bind the ^35S-B after treatment with test compound.
The affinities of the PEGylated inhibitors for α4β1 were calculated from association and disassociation rate constants using a kinetic analysis. For these studies, Jurkat cells expressing α4β1 (75,000 copies/cell) were treated with the inhibitors and then ^35S-B was added as a probe to detect free α4β1. The levels of bound inhibitor were calculated from a measure of total ^35S-B bound in the absence of added inhibitor and counts bound following inhibitor treatment.
The target in assay [3] is T1, α4β1. Briefly: VCAM-Ig direct binding assay (DBA), Jurkat cells.
From the text: A direct binding assay may also be employed to quantitate the inhibitory activity of the compounds. In this assay, a VCAM-IgG fusion protein containing the first two immunoglobulin domains of VCAM (D1D2) attached above the hinge region of an IgG1 molecule (“VCAM 2D-IgG”), is conjugated to a marker enzyme, such as alkaline phosphatase (“AP”). […] The conjugation of that fusion to a marker enzyme is achieved by cross-linking methods well-known in the art.
The VCAM-IgG enzyme conjugate is then placed in the wells of a multi-well filtration plate, such as that contained in the Millipore Multiscreen Assay System (Millipore Corp., Bedford, Mass.). Varying concentrations of the test inhibitory compound are then added to the wells followed by addition of VLA-4-expressing cells. The cells, compound and VCAM-IgG enzyme conjugate are mixed together and allowed to incubate at room temperature. Following incubation, the wells are vacuum drained, leaving behind the cells and any bound VCAM. Quantitation of bound VCAM is determined by adding an appropriate calorimetric substrate for the enzyme conjugated to VCAM-IgG and determining the amount of reaction product. Decreased reaction product indicates increased binding inhibitory activity.
Samples were also evaluated for function using the VCAM-Ig direct binding assay. Details for the construction of the VCAM-Ig animal cell expression vector, the generation of a Chinese hamster ovary (CHO) cell line expressing VCAM-Ig, conjugation of the VCAM-Ig to alkaline phosphatase, and the development of a direct binding assay for characterizing α4β1 and α4β7 binding to VCAM-Ig were as previously described (see Lobb, R. R., et al. (1995) Cell Adhes. Commun. 3:385–397).
For these studies, a series of compounds based on compound E containing 0.35, 2, 5, 20, 30, and 50 kDa-mPEG was synthesized and tested for binding to α4β1 on Jurkat cells with VCAM-Ig as a reporter (see methods).
Setting [4] is: IC50, buffer with 1 mM Ca2+ and 1 mM Mg2+, no plasma.

Where two headings read alike, the source gives them in different places.

T1 sequence (P13612 34-1032): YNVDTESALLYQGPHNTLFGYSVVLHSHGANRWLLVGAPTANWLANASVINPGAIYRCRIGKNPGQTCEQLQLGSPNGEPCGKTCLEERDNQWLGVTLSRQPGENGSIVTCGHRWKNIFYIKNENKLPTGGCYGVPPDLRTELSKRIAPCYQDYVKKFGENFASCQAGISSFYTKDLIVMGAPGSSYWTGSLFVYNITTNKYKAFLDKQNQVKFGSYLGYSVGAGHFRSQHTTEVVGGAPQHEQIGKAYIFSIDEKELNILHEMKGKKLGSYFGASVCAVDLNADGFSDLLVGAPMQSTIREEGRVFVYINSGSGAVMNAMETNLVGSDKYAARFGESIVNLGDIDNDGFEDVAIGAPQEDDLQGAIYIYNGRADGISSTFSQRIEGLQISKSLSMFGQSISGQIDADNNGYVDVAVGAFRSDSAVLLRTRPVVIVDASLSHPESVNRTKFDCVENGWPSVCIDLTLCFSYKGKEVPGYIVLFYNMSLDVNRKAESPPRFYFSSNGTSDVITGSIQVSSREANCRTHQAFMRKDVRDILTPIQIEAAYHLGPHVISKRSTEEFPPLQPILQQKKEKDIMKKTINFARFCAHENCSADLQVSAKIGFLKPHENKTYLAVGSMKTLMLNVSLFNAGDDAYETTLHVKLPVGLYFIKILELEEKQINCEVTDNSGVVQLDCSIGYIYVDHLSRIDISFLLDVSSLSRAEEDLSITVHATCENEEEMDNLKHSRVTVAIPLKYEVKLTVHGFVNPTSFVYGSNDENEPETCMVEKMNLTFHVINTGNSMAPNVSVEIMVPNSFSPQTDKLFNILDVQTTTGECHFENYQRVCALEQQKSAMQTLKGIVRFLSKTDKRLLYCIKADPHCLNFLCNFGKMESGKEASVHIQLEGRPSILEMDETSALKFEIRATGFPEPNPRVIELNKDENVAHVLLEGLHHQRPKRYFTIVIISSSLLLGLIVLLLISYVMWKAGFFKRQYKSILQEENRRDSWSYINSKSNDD
T1 sequence (P05556 21-798): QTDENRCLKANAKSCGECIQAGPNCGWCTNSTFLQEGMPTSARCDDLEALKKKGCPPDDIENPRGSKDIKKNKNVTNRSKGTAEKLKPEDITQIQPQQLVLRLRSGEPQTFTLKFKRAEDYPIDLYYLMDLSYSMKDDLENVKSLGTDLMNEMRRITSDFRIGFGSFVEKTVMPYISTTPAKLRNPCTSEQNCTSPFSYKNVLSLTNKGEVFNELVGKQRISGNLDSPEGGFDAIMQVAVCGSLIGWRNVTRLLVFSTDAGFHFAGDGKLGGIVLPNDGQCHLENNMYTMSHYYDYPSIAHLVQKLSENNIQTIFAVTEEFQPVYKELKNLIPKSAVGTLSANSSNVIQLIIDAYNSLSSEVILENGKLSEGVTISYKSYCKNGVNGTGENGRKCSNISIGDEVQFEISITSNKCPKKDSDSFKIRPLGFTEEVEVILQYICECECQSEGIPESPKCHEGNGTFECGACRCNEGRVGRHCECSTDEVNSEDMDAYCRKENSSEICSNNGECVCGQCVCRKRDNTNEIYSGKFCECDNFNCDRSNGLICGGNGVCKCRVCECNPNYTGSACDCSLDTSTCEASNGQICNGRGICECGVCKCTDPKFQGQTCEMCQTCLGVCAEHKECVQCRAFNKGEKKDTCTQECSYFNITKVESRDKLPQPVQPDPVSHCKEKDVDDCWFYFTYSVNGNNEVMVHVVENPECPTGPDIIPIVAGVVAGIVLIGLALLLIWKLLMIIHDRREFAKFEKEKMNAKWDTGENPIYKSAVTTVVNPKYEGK

Turning to `Cc1ccccc1NC(=O)Nc1ccc(CC(=O)N(C)C(CC(C)C)C(=O)NCCC(NC(=O)[C@@H]2C[C@H](NC(=O)CCCCCN)CN2S(=O)(=O)c2ccccc2)C(=O)O)cc1` (relative stereo) [D], the concentration for half-maximal inhibition (IC50) on α4β1 [1] (IC50(HP), 100% human plasma) came out at 7.9 nM. The compound also returned an IC50 on α4β1 [1] (setting [4]) of 1.5 nM. In addition, the dissociation constant (Kd) at α4β1 [2] (Jurkat cells) was 0.061 nM. For the same compound, on α4β1 [2], the koff worked out at 0.0002 s⁻¹ and the kon amounted to 3.3e+06 M⁻¹ s⁻¹.

The compound `Cc1ccccc1NC(=O)Nc1ccc(CC(=O)N(C)C(CC(C)C)C(=O)NCCC(NC(=O)[C@@H]2C[C@@H](NC(=O)CCCCCN)CN2S(=O)(=O)c2ccccc2)C(=O)O)cc1` (relative stereo) [E] returned an IC50 at α4β1 [1] (IC50(HP), 100% human plasma) of 2.3 nM. The IC50 at α4β1 [1] (setting [4]) was 1.4 nM. Besides, on α4β1 [2] (Jurkat cells), the Kd is 0.044 nM. Moreover, at α4β1 [2], the koff was found to be 0.00011 s⁻¹ and the kon worked out at 2.5e+06 M⁻¹ s⁻¹.

Consider `Cc1ccccc1NC(=O)Nc1ccc(CC(=O)N(C)[C@@H](CC(C)C)C(=O)NCC[C@H](NC(=O)[C@@H]2C[C@@H](N)CN2S(=O)(=O)c2ccccc2)C(=O)O)cc1` [C], for which, at α4β1 [1] (IC50(HP), 100% human plasma), the IC50 was 2.1 nM. Besides, the IC50 on α4β1 [1] (setting [4]) was determined as 1.2 nM. In addition, on α4β1 [2] (Jurkat cells, 35S-B probe), the koff came out at 0.00012 s⁻¹ and the kon was found to be 3e+06 M⁻¹ s⁻¹. Besides, the Kd at α4β1 [2] (Jurkat cells) is 0.04 nM.

In turn, `Cc1ccccc1NC(=O)Nc1ccc(CC(=O)N(C)[C@@H](CCCCNC(=O)CCCCCN)C(=O)NCC[C@H](NC(=O)[C@@H]2CCCN2S(=O)(=O)c2ccccc2)C(=O)O)cc1` [Compound A, 4-[6-(6-Amino-hexanoylamino)-2(S)-(methyl-{2-[4-(3-o-tolyl-ureido)-phenyl]-acetyl}-amino)-hexanoylamino]-2(S)-[(1-benzenesulfonyl-pyrrolidine-2(S)-carbonyl)-amino]-butyric acid] returned a 50% inhibitory concentration (IC50) on α4β1 [1] (IC50(HP), 100% human plasma) of 2.1 nM. Besides, the IC50 at α4β1 [1] (setting [4]) turned out to be 0.35 nM. Besides, the dissociation constant (Kd) at α4β1 [2] (Jurkat cells) is 0.25 nM. Besides, at α4β1 [2], the koff was determined as 0.00053 s⁻¹ and the kon came to 2e+06 M⁻¹ s⁻¹.

On to `Cc1ccccc1NC(=O)Nc1ccc(CC(=O)N(C)[C@@H](CC(C)C)C(=O)NCC[C@H](NC(=O)[C@@H]2C[C@H](N)CN2S(=O)(=O)c2ccccc2)C(=O)O)cc1` [F], for which the IC50 at α4β1 [1] (IC50(HP), 100% human plasma) was found to be 8.7 nM. The half-maximal inhibitory concentration (IC50) at α4β1 [1] (setting [4]) turned out to be 3.5 nM. On α4β1 [2] (Jurkat cells, 35S-B probe), the koff is 0.00024 s⁻¹ and the kon stood at 3.4e+06 M⁻¹ s⁻¹. The dissociation constant (Kd) at α4β1 [2] (Jurkat cells) was 0.07 nM.

Turning to `Cc1ccccc1NC(=O)Nc1ccc(CC(=O)N(C)C(CC(C)C)C(=O)NCCC(NC(=O)C2CC(NC(=O)CCCCCNC(=O)CCCCCCC(=O)NCCCCCC(=O)NC3CC(C(=O)NC(CCNC(=O)C(CC(C)C)N(C)C(=O)Cc4ccc(NC(=O)Nc5ccccc5C)cc4)C(=O)O)N(S(=O)(=O)c4ccccc4)C3)CN2S(=O)(=O)c2ccccc2)C(=O)O)cc1` (stereo not drawn) [Q], the “% bound Ca2+Mg2+ 30 min” value on α4β1 [2] (Ca2+Mg2+, 30 min) is 0.1%. On α4β1 [2] (Mn2+, 60 min), the “% bound Mn2+ 60 min” value is 93%. Further, the “DBA 100% rat plasma, % @ 50 nM” value at α4β1 [3] (100% rat plasma, 50 nM) is given as “(0% @”. For the same compound, the IC50 amounted to 74 nM on α4β1 [3] (read-out: DBA IC50 Ca2+Mg2+, Ca2+Mg2+) and 4.3 nM on α4β1 [3] (read-out: DBA IC50 Mn2+, Mn2+).

A word on the IC50: it is the concentration needed to halve the response being measured. In general, Kd refers to the free concentration of one partner at which half of the binding sites on the other are occupied at equilibrium, for simple one-to-one binding.
